“And” between values parts separate entries of the source, which are not always exact repeats. Equal values may be shown once.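 48-hour exposure; five concentrations; linearly interpolated endpoints. Abbreviation: GI50, concentration required for 50% inhibition of growth.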 The source made the active and inactive calls. Rule as the data show it: active = GI50 up to about 1.1 µM and inactive = higher.
Experiments:
Test in all cases: DTP human tumour cell line panel, 48 h
[1] = test system: SK-MEL-28
[2] = test system: COLO 205
[3] = test system: NCI-H226
[4] = test system: LXFL 529
[5] = test system: SW-620
[6] = test system: RXF 631
[7] = test system: U-251
[8] = test system: NCI-H23
[9] = test system: UO-31
[10] = test system: K562
[11] = test system: A498
[12] = test system: SK-MEL-2
[13] = test system: UACC-62
[14] = test system: Malme-3M
[15] = test system: LOX IMVI
[16] = test system: TK-10
[17] = test system: HCT-15
[18] = test system: OVCAR-4
[19] = test system: SK-OV-3
[20] = test system: HOP-92
[21] = test system: OVCAR-8
[22] = test system: KM-20L2
[23] = test system: MCF7
[24] = test system: SNB-78
[25] = test system: UACC-257
[26] = test system: T47D
[27] = test system: DLD-1
[28] = test system: Hs-578T
[29] = test system: RXF 393
[30] = test system: OVCAR-3
[31] = test system: MDA-N
[32] = test system: HT-29
[33] = test system: HOP-18
[34] = test system: M14
[35] = test system: SK-MEL-5
[36] = test system: NCI/ADR-RES
[37] = test system: SF-539
[38] = test system: 786-0
[39] = test system: KM12
[40] = test system: HCT-116
[41] = test system: OVCAR-5
[42] = test system: DMS-273
[43] = test system: SNB-75
[44] = test system: XF498
[45] = test system: MOLT-4
[46] = test system: SF-295
[47] = test system: NCI-H460
[48] = test system: HL-60
[49] = test system: IGROV-1
[50] = test system: RPMI-8226
[51] = test system: M19-MEL
[52] = test system: EKVX
[53] = test system: CCRF-CEM
[54] = test system: HOP-62
[55] = test system: ACHN
[56] = test system: A549
[57] = test system: CAKI-1
[58] = test system: HCC 2998

Structure (SMILES): C[C@H]1CCC/C=C/[C@@H]2C[C@H](O)C[C@H]2[C@H](O)/C=C/C(=O)O1 [BREFELDIN A]
- GI50 [1]: 19.2 nM (active) and < 19.9 nM (active)
- GI50 [2]: 14.3 nM (active) and 16.4 nM (active)
- GI50 [3]: 19.9 nM (active) and 25.8 nM (active)
- GI50 [4]: 0.00877 µM (active)
- GI50 [5]: 32.7 nM (active) and < 17.4 nM (active)
- GI50 [6]: 0.101 µM (active)
- GI50 [7]: 68.1 nM (active) and 36.7 nM (active)
- GI50 [8]: 12.5 nM (active) and 25.1 nM (active)
- GI50 [9]: 23.2 nM (active) and < 18.3 nM (active)
- GI50 [10]: 36.6 nM (active) and 71.5 nM (active)
- GI50 [11]: < 10 nM (active) and 17.4 nM (active)
- GI50 [12]: 47.4 nM (active) and 30.6 nM (active)
- GI50 [13]: < 14.2 nM (active) and 18.2 nM (active)
- GI50 [14]: 18.1 nM (active) and 11.3 nM (active)
- GI50 [15]: 13.2 nM (active) and 12.3 nM (active)
- GI50 [16]: 36.7 nM (active) and 40.8 nM (active)
- GI50 [17]: 0.0692 µM and 0.043 µM
- GI50 [18]: < 14.7 nM (active) and 24.7 nM (active)
- GI50 [19]: 60.1 nM (active) and 44.1 nM (active)
- GI50 [20]: 80 nM (active) and 41.7 nM (active)
- GI50 [21]: < 12.9 nM (active) and 22.2 nM (active)
- GI50 [22]: 0.0041 µM (active)
- GI50 [23]: < 16.4 nM (active) and 26.3 nM (active)
- GI50 [24]: 0.00675 µM (active)
- GI50 [25]: 27.5 nM (active) and 16 nM (active)
- GI50 [26]: 124 nM (active) and 71.5 nM (active)
- GI50 [27]: 0.0134 µM (active)
- GI50 [28]: < 10 nM (active) and 10.1 nM (active)
- GI50 [29]: 14.4 nM (active) and 13.4 nM (active)
- GI50 [30]: < 18.2 nM (active) and 30.5 nM (active)
- GI50 [31]: 40.6 nM (active) and 42.4 nM (active)
- GI50 [32]: < 10 nM (active) and 15.8 nM (active)
- GI50 [33]: 2.81 µM (inactive)
- GI50 [34]: < 16.1 nM (active) and 26.1 nM (active)
- GI50 [35]: < 10 nM (active) and 5.83 nM (active)
- GI50 [36]: < 14.9 nM (active) and 27.4 nM (active)
- GI50 [37]: < 21.4 nM (active) and 21.1 nM (active)
- GI50 [38]: < 10 nM (active) and 13.2 nM (active)
- GI50 [39]: 10.1 nM (active) and 10.2 nM (active)
- GI50 [40]: 18.2 nM (active) and 23.3 nM (active)
- GI50 [41]: < 24 nM (active) and 44 nM (active)
- GI50 [42]: 0.0266 µM (active)
- GI50 [43]: < 10 nM (active) and 8.97 nM (active)
- GI50 [44]: 0.00649 µM (active)

Structure (SMILES): CC(=O)O[C@H]1CC[C@@]2(C)C(=CC[C@@H]3C2CC[C@]2(C)Nc4oncc4CC32)C1 (some centres not stated)
- GI50 [45]: 10.7 µM (inactive)
- GI50 [1]: 37.2 µM (inactive)
- GI50 [3]: 15 µM (inactive)
- GI50 [4]: 13 µM (inactive)
- GI50 [46]: 32.6 µM (inactive)
- GI50 [5]: 43.3 µM (inactive)
- GI50 [6]: 33.5 µM (inactive)
- GI50 [47]: 20.3 µM (inactive)
- GI50 [7]: 37.4 µM (inactive)
- GI50 [48]: 11.7 µM (inactive)
- GI50 [8]: 44 µM (inactive)
- GI50 [49]: 28.1 µM (inactive)
- GI50 [9]: 18.3 µM (inactive)
- GI50 [10]: 6.68 µM (inactive)
- GI50 [50]: 16.9 µM (inactive)
- GI50 [11]: 40.6 µM (inactive)
- GI50 [51]: 28.5 µM (inactive)
- GI50 [12]: 44.5 µM (inactive)
- GI50 [13]: 27.5 µM (inactive)
- GI50 [14]: 25.3 µM (inactive)
- GI50 [16]: 49.2 µM (inactive)
- GI50 [17]: 33 µM
- GI50 [18]: 16.8 µM (inactive)
- GI50 [19]: 96.6 µM (inactive)
- GI50 [21]: 34.6 µM (inactive)
- GI50 [22]: 90.6 µM (inactive)
- GI50 [52]: > 100 µM (inactive)
- GI50 [25]: 31.7 µM (inactive)
- GI50 [27]: 46 µM (inactive)
- GI50 [29]: 38.8 µM (inactive)
- GI50 [53]: 4.85 µM (inactive)
- GI50 [54]: 49.2 µM (inactive)
- GI50 [30]: 16.3 µM (inactive)
- GI50 [32]: 30.1 µM (inactive)
- GI50 [55]: 25.6 µM (inactive)
- GI50 [34]: 31.8 µM (inactive)
- GI50 [35]: 17.8 µM (inactive)
- GI50 [37]: 44.9 µM (inactive)
- GI50 [38]: > 100 µM (inactive)
- GI50 [39]: 22.6 µM (inactive)
- GI50 [40]: 15.5 µM (inactive)
- GI50 [56]: 28.4 µM (inactive)
- GI50 [57]: 31.3 µM (inactive)
- GI50 [41]: > 100 µM (inactive)
- GI50 [42]: 26.9 µM (inactive)
- GI50 [43]: 24.2 µM (inactive)
- GI50 [58]: > 100 µM (inactive)
- GI50 [44]: 31.5 µM (inactive)

— ChEMBL document CHEMBL1201862, “PubChem BioAssay data set” (2004)
